Data reported in ChEMBL document CHEMBL3046600, “1-Phenoxyalkyl-4-[(N,N-disubstitutedamino)alkyl]piperazine derivatives as non-imidazole histamine H3-antagonists” (Med Chem Res, 2013).

Molecular target: Histamine H1 receptor (Cavia porcellus, UniProt P31389)
Test: Antagonist activity at histamine H1 receptor in Cavia porcellus (guinea pig) ileum assessed as inhibition of histamine-induced contraction
Settings: read-out: pA2 (converted)

Sequence of Histamine H1 receptor (P31389 whole entry): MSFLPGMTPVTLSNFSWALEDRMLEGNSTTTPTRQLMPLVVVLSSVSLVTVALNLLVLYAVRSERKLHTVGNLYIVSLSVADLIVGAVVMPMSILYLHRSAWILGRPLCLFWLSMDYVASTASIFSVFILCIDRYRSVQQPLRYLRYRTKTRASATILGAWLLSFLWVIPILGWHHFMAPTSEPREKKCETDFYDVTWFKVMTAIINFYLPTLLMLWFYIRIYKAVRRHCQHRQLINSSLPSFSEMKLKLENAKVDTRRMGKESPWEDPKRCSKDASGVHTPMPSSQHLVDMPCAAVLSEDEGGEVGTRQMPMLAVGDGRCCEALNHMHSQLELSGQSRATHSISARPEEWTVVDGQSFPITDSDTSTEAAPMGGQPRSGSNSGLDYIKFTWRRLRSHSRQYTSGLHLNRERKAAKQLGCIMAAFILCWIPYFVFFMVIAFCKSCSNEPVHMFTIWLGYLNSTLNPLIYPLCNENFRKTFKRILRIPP

Kb [nM] | SMILES
> 100000 | NCCCCN1CCN(CCCCCCCOc2ccccc2)CC1

Molecular target: T1, Histamine H3 receptor (Cavia porcellus, UniProt Q9JI35)
T1 sequence (Q9JI35 whole entry): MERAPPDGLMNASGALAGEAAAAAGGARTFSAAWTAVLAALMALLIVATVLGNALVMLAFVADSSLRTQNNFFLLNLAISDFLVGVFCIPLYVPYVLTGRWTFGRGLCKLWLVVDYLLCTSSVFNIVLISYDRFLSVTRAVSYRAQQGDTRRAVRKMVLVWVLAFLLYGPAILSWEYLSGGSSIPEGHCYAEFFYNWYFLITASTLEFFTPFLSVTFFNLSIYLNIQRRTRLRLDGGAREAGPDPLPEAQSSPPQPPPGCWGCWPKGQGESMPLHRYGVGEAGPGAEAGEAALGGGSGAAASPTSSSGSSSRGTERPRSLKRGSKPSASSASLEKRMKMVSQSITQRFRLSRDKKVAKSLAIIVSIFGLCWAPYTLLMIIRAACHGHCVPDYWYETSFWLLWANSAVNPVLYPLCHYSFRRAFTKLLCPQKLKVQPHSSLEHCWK
Test: Antagonist activity at histamine H3 receptor in Cavia porcellus (guinea pig) jejunum assessed as inhibition of electrically-induced contraction
Settings: read-out: pA2 (converted)

Kb [nM] | SMILES
102 | NCCCCCN1CCN(CCCCCCCOc2ccccc2)CC1
191 | NCCCN1CCN(CCCCCCOc2ccccc2)CC1
513 | NCCCN1CCN(CCCOc2ccccc2)CC1
102 | NCCCN1CCN(CCCCCCCCCOc2ccccc2)CC1
214 | NCCCCCCN1CCN(CCCCCCCOc2ccccc2)CC1
158 | NCCCN1CCN(CCCCCOc2ccccc2)CC1
66.1 | NCCCCN1CCN(CCCCCCCOc2ccccc2)CC1
380 | NCCN1CCN(CCCCCCCOc2ccccc2)CC1
178 | NCCCN1CCN(CCOc2ccccc2)CC1
91.2 | NCCCN1CCN(CCCCCCCOc2ccccc2)CC1
145 | NCCCN1CCN(CCCCCCCCOc2ccccc2)CC1
214 | NCCCCCCCN1CCN(CCCCCCCOc2ccccc2)CC1
240 | NCCCN1CCN(CCCCOc2ccccc2)CC1

SMILES | Kb [nM]
S=C(NC1CCCCC1)N1CCC(c2cnc[nH]2)CC1 [THIOPERAMIDE] | 2.19

Molecular target: T1, Histamine H3 receptor
Test: Antagonist activity at histamine H3 receptor in Cavia porcellus (guinea pig) ileum assessed as inhibition of electrically-induced contraction
Format: tissue-based
Settings: read-out: pA2 (converted)

Kb [nM] | SMILES
105 | CN(CCCCN1CCN(CCCCCCCOc2ccccc2)CC1)C(=O)c1ccccc1
69.2 | CC(=O)N(C)CCCCN1CCN(CCCCCCCOc2ccccc2)CC1
100 | CN(CCCCN1CCN(CCCCCCCOc2ccccc2)CC1)C(=O)C(F)(F)F
